Common to all, as to test: DTP human tumour cell line panel, 48 h
The subject of assay [1] is UACC-257 melanoma.
In assay [2] the test system is HL-60(TB) leukemia.
Assay [3] relates to SK-MEL-2 melanoma.
Assay [4] concerns LOX IMVI melanoma.
Assay [5] concerns NCI-H23 lung.
For assay [6], the system named is HCT-116 colon.
Assay [7] deals with BT-549 breast.
In assay [8] the test system is MDA-MB-231 breast.
Assay [9] deals with MCF7 breast.
Assay [10] relates to EKVX NSCLC.
Assay [11] concerns SK-MEL-5 melanoma.
In assay [12] the test system is SK-MEL-28 melanoma.
The subject of assay [13] is A549 NSCLC.
In assay [14] the test system is T-47D breast.
The subject of assay [15] is COLO 205 colon.
Assay [16] has as its system OVCAR-4 ovarian.

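Interpolation was linear, between the two tested concentrations surrounding the appropriate level; five concentrations were tested over 48 hours in 96-well plates. TGI: concentration producing complete growth inhibition.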 Some results are limits rather than exact numbers.

For orientation: TGI means the concentration giving total growth inhibition. For the compound `CC(C)NC(=O)OCc1c(COC(=O)NC(C)C)n(C)c2c1ccc1ccccc12`, the TGI in [1] worked out at 2.99 µM; in assay [2], 22.4 µM; in assay [3], 4.09 µM; in assay [4], 2.6 µM; in assay [5], 3.17 µM; in [6], 2.82 µM. Moreover, the TGI in assay [7] came to 1.58 µM; in [8], 3.6 µM; in assay [9] it was 1.88 µM; in [10], 10.4 µM; in assay [11] it was 6.63 µM; in assay [12], 5.75 µM. The TGI was 23.5 µM in assay [13], 1.48 µM in assay [14], 3.83 µM in assay [15] and 9.19 µM in assay [16].
For `CN(CCCCN(C)CCc1ccc(Cl)c(Cl)c1)CCCCN1CCCC1`, the TGI in assay [1] came to 3.06 µM; in assay [2], 3.97 µM; in [3], 3.12 µM; in [4] it was 1.66 µM; in [5], 3.41 µM; in assay [6] it was 2.93 µM. Also, the TGI is 4.6 µM in assay [7]; 2.25 µM in assay [8]; 2.84 µM in assay [9]; 3.54 µM in [10]; 3.19 µM in assay [11]; 1.06 µM in assay [12]. The TGI in assay [13] was 3.35 µM; in assay [14] it was 3.94 µM; in assay [15] it was 3.8 µM; in assay [16], 3.66 µM.
As to `COc1cc2c(c3c1c(=O)c1ccccc1n3C)C=CC1(CCCCC1)O2`, the TGI in assay [1] is above 10 µM; in assay [2], above 10 µM; in assay [3], 9.69 µM; in [4], above 10 µM; in assay [5], above 10 µM; in assay [6], above 10 µM. Also, the TGI in assay [7] is above 8.59 µM; in assay [8], above 10 µM; in [9] it was above 9.55 µM; in assay [10], above 10 µM; in assay [11] it was above 6.15 µM; in [12], above 10 µM. Further, the TGI in assay [13] is 4.43 µM; in assay [14] it was above 10 µM; in assay [15], above 10 µM; in assay [16], above 10 µM.
Regarding `O=C(NCCO)Nc1c(C(F)(F)F)cc(-c2ccccc2)[nH]c1=O`, the TGI in assay [1], in assay [2], in [3], in assay [4], in assay [5] and in assay [6] was above 100 µM each time. In addition, the concentration for total growth inhibition (TGI) in [7], in assay [8], in assay [9], in assay [10], in assay [11] and in assay [12] was above 100 µM each time. Besides, the TGI in assay [13], in [14], in assay [15] and in [16] was above 100 µM throughout.
Take `CC(C)n1c2c([n+](C)c1/C=C/c1ccccc1)C(=O)c1ccccc1C2=O`: the concentration for total growth inhibition (TGI) in [1] was 0.123 µM; in assay [2] it was 1.14 µM; in [3], 0.48 µM; in [4] it was 0.971 µM; in assay [5], 0.412 µM; in [6], 0.433 µM. Moreover, the TGI in [7] was found to be 0.667 µM; in assay [8], 0.884 µM; in assay [9], 0.214 µM; in assay [10], 1.25 µM; in assay [11], 0.252 µM; in [12], 1.6 µM. The TGI in [13] is 4.68 µM; in assay [14], 0.61 µM; in assay [15], 0.0993 µM; in assay [16], 1 µM.
In the case of `O=C(OC(=C(c1ccccc1)c1ccccc1)N1CCCC1=S)C(c1ccccc1)c1ccccc1`, the TGI in [1], in assay [2], in assay [3], in assay [4], in assay [5] and in [6] was above 10 µM each time. Moreover, the TGI in [7], in assay [8], in [9], in assay [10], in assay [11] and in assay [12] was above 10 µM in each case. Also, the TGI in assay [13] is above 10 µM; in [14] it was above 10 µM; in assay [15], 5.5 µM; in assay [16], above 10 µM.
Regarding `O=C1C=C(NCCc2cc(Br)c(O)c(Br)c2)C(=O)c2ncccc21`, the TGI in [1] worked out at 2.92 µM; in [2], 16.1 µM; in assay [3] it was 4.1 µM; in assay [4] it was 4.97 µM; in assay [5], 1.66 µM; in assay [6], 11.8 µM. Further, the TGI in assay [7] stood at 5.07 µM; in [8], 20.3 µM; in [9], 5.29 µM; in assay [10] it was 22 µM; in assay [11] it was 2.57 µM; in [12], 3.5 µM. Besides, the total growth inhibition concentration (TGI) in [13] came out at 4.79 µM; in assay [14], 43.4 µM; in [15], 3.25 µM; in assay [16], 11.3 µM.
In the case of `c1ccc2c(c1)Nc1nc3nonc3nc1N2`, the TGI in assay [1], in [2], in [3], in assay [4], in assay [5] and in assay [6] was above 100 µM in each case. The TGI in [7], in [8], in assay [9], in [10], in [11] and in [12] was above 100 µM each time. The concentration for total growth inhibition (TGI) in [13], in [14], in assay [15] and in assay [16] was above 100 µM throughout.
Turning to `COc1cc([N+](=O)[O-])ccc1NC1=CC(=O)CCC1`, the TGI in [1], in assay [2], in [3], in [4], in assay [5] and in assay [6] was above 100 µM each time. Moreover, the concentration for total growth inhibition (TGI) in [7], in assay [8], in [9], in assay [10], in [11] and in assay [12] was above 100 µM each time. For the same compound, the TGI in [13], in [14], in [15] and in assay [16] was above 100 µM throughout.

The values above are taken from PubChem BioAssay (NCI).
